Test system: dorsal root ganglia neurons
Assay: Field stimulation of cultured neurons, membrane potential by di8ANEPPS fluorescence
Assay type: cell-based, rat
Details: caffeine added to NTFL
Source text: The procedure below details a study performed on one type of cultured nerve cells, namely dorsal root ganglia neurons, using a 10% solution of glycerolphospholipids in combination with inulin (NTFL).
The cultured cells were then exposed to an aqueous solution of the lipid supplement comprising glycerolphospholipids in combination with inulin, referred to as NTFL nanomicelles.
This was used as an indicator of membrane potential instead of microelectrodes because patching these neurons or the use of microelectrodes can be difficult in these studies in the presence of the NTFL nanomicellles solutions.
To perform the comparison, electrodes were applied to the bath containing the cultured neurons and field stimulation was provided by passed current through the bath. This caused depolarization of the nerve cells resulting in fluorescence of the di8ANEPPS.

Compound: Cn1c(=O)c2c(ncn2C)n(C)c1=O [caffeine]
- effect on nerve conduction: did not appear to have an effect on nerve conduction

— US11253531B2, “Lipid supplements for reducing nerve action potentials” (Nutritional Therapeutics, Inc., priority 2011, dated 2022)
